Where a name gives a salt, the structure may show the parent alone.

In this assay the target is T1, Adrenergic β2 (Homo sapiens, UniProt P07550).
T1 construct: Adherent H292 cells were removed from tissue culture flasks; endogenous in cells; host or cells: H292 cells
The assay is described as follows: Adrenergic β2 mediated cAMP production in H292 cells (AlphaScreen cAMP detection). The note with it: Intrinsic Activity, fraction relative to the maximum activity determined for formoterol. It is filed as cell-based. On the procedure: Adrenergic β2 Mediated cAMP Production
H292 cells were grown in 225 cm2 flasks incubator at 37° C., 5% CO2 in RPMI medium containing, 10% (v/v) FBS (foetal bovine serum) and 2 mM L-glutamine.
Adherent H292 cells were removed from tissue culture flasks by treatment with Accutase™ cell detachment solution for 15 minutes. Flasks were incubated for 15 minutes in a humidified incubator at 37° C., 5% CO2. Detached cells were re-suspended in RPMI media (containing 10% (v/v) FBS and 2 mM L-glutamine) at 0.05×10^6 cells per mL. 5000 cells in 100 μL were added to each well of a tissue-culture-treated 96-well plate and the cells incubated overnight in a humidified incubator at 37° C., 5% CO2. The culture media was removed and cells were washed twice with 100 μL assay buffer and replaced with 50 μL assay buffer (HBSS solution containing 10 mM HEPES pH 7.4 and 5 mM glucose). Cells were rested at room temperature for 20 minutes after which time 25 μL of rolipram (1.2 mM made up in assay buffer containing 2.4% (v/v) dimethylsulphoxide) was added. Cells were incubated with rolipram for 10 minutes after which time test compounds were added and the cells were incubated for 60 minutes at room temperature. The final rolipram concentration in the assay was 300 μM and final vehicle concentration was 1.6% (v/v) dimethylsulphoxide. The reaction was stopped by removing supernatants, washing once with 100 μL assay buffer and replacing with 50 μL lysis buffer. The cell monolayer was frozen at −80° C. for 30 minutes (or overnight).
The concentration of cAMP (cyclic adenosine monophosphate) in the cell lysate was determined using AlphaScreen™ methodology. The frozen cell plate was thawed for 20 minutes on a plate shaker then 10 μL of the cell lysate was transferred to a 96-well white plate. 40 μL of mixed AlphaScreen™ detection beads pre-incubated with biotinylated cAMP, was added to each well and the plate incubated at room temperature for 10 hours in the dark. The AlphaScreen™ signal was measured using an EnVision spectrophotometer (Perkin-Elmer Inc.) with the recommended manufacturer's settings. cAMP concentrations were determined by reference to a calibration curve determined in the same experiment using standard cAMP concentrations. Concentration response curves for agonists were constructed and data was fitted to a four parameter logistic equation to determine both the pEC50 and Intrinsic Activity. Intrinsic Activity was expressed as a fraction relative to the maximum activity determined for formoterol in each experiment.
(Cyclic AMP is a second messenger, typically raised through Gs and lowered through Gi signalling.)

T1 sequence (P07550 whole entry): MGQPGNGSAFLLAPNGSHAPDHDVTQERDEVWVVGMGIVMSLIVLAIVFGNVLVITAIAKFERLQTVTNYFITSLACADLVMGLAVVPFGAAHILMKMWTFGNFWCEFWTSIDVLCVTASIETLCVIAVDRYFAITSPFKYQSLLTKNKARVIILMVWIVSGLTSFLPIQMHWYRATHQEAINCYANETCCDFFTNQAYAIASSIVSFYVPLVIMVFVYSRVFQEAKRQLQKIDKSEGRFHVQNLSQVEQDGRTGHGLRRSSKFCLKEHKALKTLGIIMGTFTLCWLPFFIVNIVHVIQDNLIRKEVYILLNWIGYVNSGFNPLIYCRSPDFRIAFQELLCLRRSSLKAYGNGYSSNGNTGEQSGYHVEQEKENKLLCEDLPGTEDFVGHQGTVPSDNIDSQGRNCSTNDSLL

On to `CCCC[C@@H](C)N(CCNCCc1ccc(O)c2[nH]c(=O)sc12)C(=O)CCNCCc1ccccc1` [Example 101, N-(2-{[2-(4-Hydroxy-2-oxo-2,3-dihydro-1,3-benzothiazol-7-yl)ethyl]amino}ethyl)-N-[(1R)-1-methylpentyl]-N^3-(2-phenylethyl)-β-alaninamide bis-trifluoroacetic acid salt], for which the “β2 Int Act” value turned out to be 0.98.

In the case of `O=C(CCNCCc1ccc(Cl)cc1)N(CCNCCc1ccc(O)c2[nH]c(=O)sc12)C1CCOCC1` [Example 26, N^3-[2-(4-Chlorophenyl)ethyl]-N-(2-{[2-(4-hydroxy-2-oxo-2,3-dihydro-1,3-benzothiazol-7-yl)ethyl]amino}ethyl)-N-(tetrahydro-2H-pyran-4-yl)-β-alaninamide bis-trifluoroacetic acid salt], the “β2 Int Act” value stood at 0.83. For `O=C(CCNCCc1ccc(O)c2[nH]c(=O)sc12)N(CCNCCc1ccc(O)c2[nH]c(=O)sc12)C1CCCCCC1` [Example 87, N^1-Cycloheptyl-N^3-[2-(4-hydroxy-2-oxo-2,3-dihydro-1,3-benzothiazol-7-yl)ethyl]-N^1-(2-{[2-(4-hydroxy-2-oxo-2,3-dihydro-1,3-benzothiazol-7-yl)ethyl]amino}ethyl)-β-alaninamide bis-trifluoroacetic acid salt], the “β2 Int Act” value was found to be 0.72. The value for `O=C(CCNCCc1ccc(F)cc1)N(CCNCCc1ccc(O)c2[nH]c(=O)sc12)C1CCCCC1` [Example 16, N-Cyclohexyl-N^3-[2-(4-fluorophenyl)ethyl]-N-(2-{[2-(4-hydroxy-2-oxo-2,3-dihydro-1,3-benzothiazol-7-yl)ethyl]amino}ethyl)-β-alaninamide bis-trifluoroacetic acid salt] was 0.91; that for `O=C(CCNCCc1ccc(Cl)cc1)N(CCNCCc1ccc(O)c2[nH]c(=O)sc12)C1CCCCCC1` [Example 51, N^3-[2-(4-Chlorophenyl)ethyl]-N^1-cycloheptyl-N^1-(2-{[2-(4-hydroxy-2-oxo-2,3-dihydro-1,3-benzothiazol-7-yl)ethyl]amino}ethyl)-β-alaninamide bis-trifluoroacetic acid salt] was 0.59. The value for `O=C(CCNCCc1c(F)cccc1F)N(CCNCCc1ccc(O)c2[nH]c(=O)sc12)C1CCCCCC1` [Example 84, N^1-Cycloheptyl-N^3-[2-(2,6-difluorophenyl)ethyl]-N^1-(2-{[2-(4-hydroxy-2-oxo-2,3-dihydro-1,3-benzothiazol-7-yl)ethyl]amino}ethyl)-β-alaninamide bis-trifluoroacetic acid salt] was 0.89; that for `CC1(C)CCC(N(CCNCCc2ccc(O)c3[nH]c(=O)sc23)C(=O)CCNCCc2cccc(O)c2)CC1` [Example 91, N^1-(4,4-Dimethylcyclohexyl)-N^1-(2-{[2-(4-hydroxy-2-oxo-2,3-dihydro-1,3-benzothiazol-7-yl)ethyl]amino}ethyl)-N^3-[2-(3-hydroxyphenyl)ethyl]-β-alaninamide bis-trifluoroacetic acid salt] was 0.75; that for `O=C(CCNCCc1ccccc1)N(CCNCCc1ccc(O)c2[nH]c(=O)sc12)C1Cc2ccccc2C1` [Example 41, N^1-(2,3-Dihydro-1H-inden-2-yl)-N^1-(2-{[2-(4-hydroxy-2-oxo-2,3-dihydro-1,3-benzothiazol-7-yl)ethyl]amino}ethyl)-N^3-(2-phenylethyl)-β-alaninamide bis-trifluoroacetic acid salt] was 0.99. The value for `CC(C)(C)CN(CCNCCc1ccc(O)c2[nH]c(=O)sc12)C(=O)CCNCCc1cccc(F)c1` [Example 44, N^1-(2,2-Dimethylpropyl)-N^3-[2-(3-fluorophenyl)ethyl]-N^1-(2-{[2-(4-hydroxy-2-oxo-2,3-dihydro-1,3-benzothiazol-7-yl)ethyl]amino}ethyl)-β-alaninamide bis-trifluoroacetic acid salt] was 0.73; that for `O=C(NCc1ccccc1)c1ccc(CCNCCC(=O)N(CCNCCc2ccc(O)c3[nH]c(=O)sc23)C2CCCCCC2)cc1` [Example 100, N-Benzyl-4-[2-({3-[cycloheptyl(2-{[2-(4-hydroxy-2-oxo-2,3-dihydro-1,3-benzothiazol-7-yl)ethyl]amino}ethyl)amino]-3-oxopropyl}amino)ethyl]benzamide bis-trifluoroacetic acid salt] was 0.81.

For `CCCC(CCC)N(CCNCCc1ccc(O)c2[nH]c(=O)sc12)C(=O)CCNCCc1ccc(F)cc1` [Example 64, N^3-[2-(4-Fluorophenyl)ethyl]-N^1-(2-{[2-(4-hydroxy-2-oxo-2,3-dihydro-1,3-benzothiazol-7-yl)ethyl]amino}ethyl)-N^1-(1-propylbutyl)-β-alaninamide bis-trifluoroacetic acid salt], the “β2 Int Act” value was 0.70. Take `O=C(CCNCCc1ccccc1Cl)N(CCNCCc1ccc(O)c2[nH]c(=O)sc12)C1CCCC1` [Example 29, N^3-[2-(2-Chlorophenyl)ethyl]-N-cyclopentyl-N-(2-{[2-(4-hydroxy-2-oxo-2,3-dihydro-1,3-benzothiazol-7-yl)ethyl]amino}ethyl)-β-alaninamide bis-trifluoroacetic acid salt]: the “β2 Int Act” value was found to be 0.97.

Consider `CC(C)(CN(CCNCCc1ccc(O)c2[nH]c(=O)sc12)C(=O)CCNCCc1ccccc1)c1ccccc1` [Example 45, N^1-(2-{[2-(4-Hydroxy-2-oxo-2,3-dihydro-1,3-benzothiazol-7-yl)ethyl]amino}ethyl)-N^1-(2-methyl-2-phenylpropyl)-N^3-(2-phenylethyl)-β-alaninamide bis-trifluoroacetic acid salt], for which the “β2 Int Act” value is 0.55.

As to `O=C(CCNCCc1cc(F)ccc1F)N(CCNCCc1ccc(O)c2[nH]c(=O)sc12)C1CCCCC1` [Example 79, N^1-Cyclohexyl-N^3-[2-(2,5-difluorophenyl)ethyl]-N^1-(2-{[2-(4-hydroxy-2-oxo-2,3-dihydro-1,3-benzothiazol-7-yl)ethyl]amino}ethyl)-β-alaninamide bis-trifluoroacetic acid salt], the “β2 Int Act” value is given as 0.84. For `O=C(CCNCCc1cccc(Cl)c1)N(CCNCCc1ccc(O)c2[nH]c(=O)sc12)C1CCCCCC1` [Example 50, N^3-[2-(3-Chlorophenyl)ethyl]-N^1-cycloheptyl-N^1-(2-{[2-(4-hydroxy-2-oxo-2,3-dihydro-1,3-benzothiazol-7-yl)ethyl]amino}ethyl)-β-alaninamide bis-trifluoroacetic acid salt], the “β2 Int Act” value was 0.91. Next, `O=C(CCNCCc1ccccc1)N(CCNCCc1ccc(O)c2[nH]c(=O)sc12)C1CCC(F)(F)CC1` [Example 4, N-(4,4-Difluorocyclohexyl)-N-(2-{[2-(4-hydroxy-2-oxo-2,3-dihydro-1,3-benzothiazol-7-yl)ethyl]amino}ethyl)-N^3-(2-phenylethyl)-β-alaninamide bis-trifluoroacetic acid salt]: 0.79; `O=C(CCNCCc1ccc(F)c(F)c1)N(CCNCCc1ccc(O)c2[nH]c(=O)sc12)C1CCCCC1` [Example 73, N^1-Cyclohexyl-N^3-[2-(3,4-difluorophenyl)ethyl]-N^1-(2-{[2-(4-hydroxy-2-oxo-2,3-dihydro-1,3-benzothiazol-7-yl)ethyl]amino}ethyl)-β-alaninamide bis-trifluoroacetic acid salt]: 0.85; `C[C@H](CNCCC(=O)N(CCNCCc1ccc(O)c2[nH]c(=O)sc12)C1CCCCC1)c1ccccc1` [Example 18, N-Cyclohexyl-N-(2-{[2-(4-hydroxy-2-oxo-2,3-dihydro-1,3-benzothiazol-7-yl)ethyl]amino}ethyl)-N^3-[(2S)-2-phenylpropyl]-β-alaninamide bis-trifluoroacetic acid salt]: 0.89. The value for `O=C(CCNCCc1ccc(O)c(Cl)c1)N(CCNCCc1ccc(O)c2[nH]c(=O)sc12)C1CCCCC1` [Example 89, N^3-[2-(3-chloro-4-hydroxyphenyl)ethyl]-N^1-cyclohexyl-N^1-(2-{[2-(4-hydroxy-2-oxo-2,3-dihydro-1,3-benzothiazol-7-yl)ethyl]amino}ethyl)-β-alaninamide bis-trifluoroacetic acid salt] was 0.9; that for `O=C(CCNCCc1cccc(Cl)c1)N(CCNCCc1ccc(O)c2[nH]c(=O)sc12)C1CCC(F)(F)CC1` [Example 47, N^3-[2-(3-Chlorophenyl)ethyl]-N^1-(4,4-difluorocyclohexyl)-N^1-(2-{[2-(4-hydroxy-2-oxo-2,3-dihydro-1,3-benzothiazol-7-yl)ethyl]amino}ethyl)-β-alaninamide bis-trifluoroacetic acid salt] was 0.73.

The record behind these values is patent US7700782B2, “Compounds 569” (AstraZeneca AB, priority 2007, dated 2010).
